Experimental data reported in the supplement of paper PMC6045584.
± gives the standard deviation of the averaged measurements.

What was measured:
[1] = compound: COc1cc2nccc(Oc3ccc(NC(=O)C4(C(=O)Nc5ccc(F)cc5)CC4)cc3)c2cc1OC [CABOZANTINIB]; experiment: surviving fraction relative to DMSO-only wells; higher = less growth inhibition; conditions: exposure time: 5 days
In short: (§1)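 After seeding at 250–500 cells per well in 384-well plates and a 24-hour wait, log-phase tumour cell lines were exposed without interruption for five days to inhibitors at 0.5, 1, 5, 10, 50, 100, 500 and 1000 nM. CellTiter-Glo luminescence was recorded after 10 minutes at room temperature. Viability is reported as surviving fraction, the luminescence normalised to the median of DMSO-only wells.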

[2] = compound: Cn1ncnc1[C@H]1c2n[nH]c(=O)c3cc(F)cc(c23)N[C@@H]1c1ccc(F)cc1 [BMN-673]; experiment: as above; conditions: exposure time: 5 days
In short: as §1

Test System | surviving fraction ([1]; 0.5 nM) | surviving fraction ([1]; 1 nM) | surviving fraction ([1]; 5 nM) | surviving fraction ([1]; 10 nM) | surviving fraction ([1]; 50 nM) | surviving fraction ([1]; 100 nM) | surviving fraction ([1]; 500 nM) | surviving fraction ([1]; 1000 nM) | surviving fraction ([2]; 0.5 nM) | surviving fraction ([2]; 1 nM) | surviving fraction ([2]; 5 nM) | surviving fraction ([2]; 10 nM) | surviving fraction ([2]; 50 nM) | surviving fraction ([2]; 100 nM) | surviving fraction ([2]; 500 nM) | surviving fraction ([2]; 1000 nM)
JURKAT HAEMATOPOIETIC AND LYMPHOID TISSUE | 1.07 ± 0.015 | 1.03 ± 0.014 | 1.05 ± 0.042 | 1.05 ± 0.022 | 0.998 ± 0.036 | 0.985 ± 0.017 | 1.04 ± 0.021 | 0.972 ± 0.0044 | 1.04 ± 0.027 | 1.04 ± 0.015 | 0.863 ± 0.035 | 0.838 ± 0.014 | 0.601 ± 0.049 | 0.503 ± 0.033 | 0.123 ± 0.007 | 0.0493 ± 0.0047
KPD BONE | 0.914 ± 0.031 | 0.985 ± 0.02 | 1.1 ± 0.045 | 1.04 ± 0.028 | 1.05 ± 0.036 | 1.03 ± 0.045 | 0.997 ± 0.068 | 0.956 ± 0.047 | 0.971 ± 0.046 | 0.877 ± 0.053 | 0.814 ± 0.045 | 0.463 ± 0.28 | 0.531 ± 0.03 | 0.437 ± 0.02 | 0.338 ± 0.01 | 0.3337 ± 0.0032
LM7 BONE | 1.03 ± 0.091 | 0.998 ± 0.039 | 1.07 ± 0.035 | 1.04 ± 0.053 | 1.06 ± 0.11 | 1.09 ± 0.019 | 0.932 ± 0.015 | 0.889 ± 0.036 | 0.975 ± 0.042 | 0.987 ± 0.068 | 0.764 ± 0.051 | 0.573 ± 0.028 | 0.395 ± 0.027 | 0.312 ± 0.028 | 0.227 ± 0.015 | 0.197 ± 0.024
LNCAP PROSTATE | 0.622 ± 0.084 | 1.02 ± 0.041 | 0.925 ± 0.05 | 0.897 ± 0.1 | 0.936 ± 0.042 | 0.976 ± 0.057 | 0.766 ± 0.013 | 0.383 ± 0.023 | 0.85 ± 0.052 | 0.849 ± 0.05 | 0.604 ± 0.059 | 0.407 ± 0.037 | 0.297 ± 0.015 | 0.254 ± 0.0095 | 0.181 ± 0.014 | 0.165 ± 0.022
MCF7 BREAST | 0.907 ± 0.019 | 0.836 ± 0.012 | 0.852 ± 0.029 | 0.863 ± 0.033 | 0.889 ± 0.015 | 0.933 ± 0.032 | 0.88 ± 0.066 | 0.91 ± 0.075 | 0.952 ± 0.053 | 0.95 ± 0.069 | 0.838 ± 0.029 | 0.802 ± 0.046 | 0.756 ± 0.03 | 0.732 ± 0.026 | 0.679 ± 0.024 | 0.62 ± 0.011
MDAMB134 BREAST | 0.902 ± 0.12 | 0.888 ± 0.047 | 0.896 ± 0.13 | 1.04 ± 0.14 | 0.907 ± 0.23 | 0.943 ± 0.0042 | 0.955 ± 0.086 | 0.873 ± 0.086 | 0.955 ± 0.085 | 0.908 ± 0.14 | 0.971 ± 0.057 | 0.929 ± 0.014 | 1.01 ± 0.067 | 0.991 ± 0.025 | 0.857 ± 0.23 | 0.775 ± 0.08
MDAMB157 BREAST | 0.933 ± 0.056 | 0.953 ± 0.049 | 1 ± 0.025 | 0.959 ± 0.031 | 0.994 ± 0.048 | 0.891 ± 0.054 | 0.798 ± 0.072 | 0.733 ± 0.03 | 0.999 ± 0.13 | 0.944 ± 0.081 | 0.844 ± 0.084 | 0.795 ± 0.1 | 0.541 ± 0.01 | 0.392 ± 0.01 | 0.228 ± 0.017 | 0.257 ± 0.036
MDAMB231 BREAST | 0.853 ± 0.013 | 0.9576 ± 0.0047 | 0.969 ± 0.0068 | 0.978 ± 0.024 | 1.01 ± 0.018 | 1.005 ± 0.0054 | 0.908 ± 0.03 | 0.849 ± 0.019 | 0.98 ± 0.029 | 0.972 ± 0.02 | 0.898 ± 0.019 | 0.838 ± 0.022 | 0.711 ± 0.053 | 0.639 ± 0.011 | 0.523 ± 0.021 | 0.454 ± 0.03
MDAMB361 BREAST | 0.842 ± 0.099 | 0.796 ± 0.056 | 0.816 ± 0.042 | 0.844 ± 0.06 | 0.93 ± 0.081 | 0.887 ± 0.1 | 0.903 ± 0.054 | 0.89 ± 0.12 | 0.804 ± 0.064 | 0.806 ± 0.018 | 0.829 ± 0.013 | 0.82 ± 0.041 | 0.856 ± 0.026 | 0.798 ± 0.07 | 0.782 ± 0.038 | 0.764 ± 0.062
MDAMB436 BREAST | 0.95 ± 0.067 | 0.94 ± 0.04 | 1 ± 0.17 | 0.973 ± 0.029 | 1.04 ± 0.096 | 0.951 ± 0.097 | 1.04 ± 0.058 | 1.02 ± 0.11 | 0.734 ± 0.039 | 0.66 ± 0.056 | 0.481 ± 0.023 | 0.434 ± 0.031 | 0.413 ± 0.032 | 0.369 ± 0.026 | 0.349 ± 0.032 | 0.332 ± 0.02
MDAMB453 BREAST | 1.04 ± 0.049 | 1.01 ± 0.034 | 1.09 ± 0.051 | 1.03 ± 0.052 | 1.01 ± 0.092 | 1.06 ± 0.014 | 1.06 ± 0.062 | 1.02 ± 0.041 | 1.1 ± 0.11 | 1.03 ± 0.054 | 1.12 ± 0.13 | 0.881 ± 0.057 | 0.724 ± 0.056 | 0.57 ± 0.029 | 0.454 ± 0.019 | 0.495 ± 0.044
MDAMB468 BREAST | 1.04 ± 0.089 | 1.11 ± 0.044 | 1.05 ± 0.057 | 1.09 ± 0.017 | 1.13 ± 0.067 | 1.15 ± 0.07 | 1.05 ± 0.086 | 1.07 ± 0.092 | 0.993 ± 0.083 | 0.914 ± 0.024 | 0.824 ± 0.1 | 0.728 ± 0.12 | 0.578 ± 0.039 | 0.451 ± 0.053 | 0.305 ± 0.033 | 0.243 ± 0.013
MFM223 BREAST | 1.12 ± 0.16 | 1.04 ± 0.048 | 1.12 ± 0.094 | 1.06 ± 0.086 | 1.16 ± 0.17 | 1.22 ± 0.073 | 1.05 ± 0.029 | 0.824 ± 0.098 | 1.25 ± 0.069 | 1.2 ± 0.073 | 1.07 ± 0.25 | 0.9232 ± 0.0025 | 0.805 ± 0.015 | 0.755 ± 0.047 | 0.734 ± 0.027 | 0.713 ± 0.072
MG63 BONE | 0.966 ± 0.019 | 1.02 ± 0.042 | 1.05 ± 0.021 | 1.03 ± 0.032 | 1.03 ± 0.019 | 0.946 ± 0.037 | 0.724 ± 0.011 | 0.696 ± 0.031 | 1.03 ± 0.023 | 0.988 ± 0.026 | 0.989 ± 0.028 | 0.917 ± 0.017 | 0.646 ± 0.014 | 0.432 ± 0.039 | 0.285 ± 0.0053 | 0.193 ± 0.029
MHM BONE | 1.02 ± 0.045 | 1.01 ± 0.037 | 1.02 ± 0.026 | 1.04 ± 0.043 | 1.044 ± 0.0055 | 0.99 ± 0.021 | 0.896 ± 0.022 | 0.915 ± 0.019 | 1.03 ± 0.047 | 1 ± 0.035 | 1.01 ± 0.048 | 1.01 ± 0.051 | 0.997 ± 0.041 | 0.981 ± 0.0079 | 0.868 ± 0.017 | 0.782 ± 0.012
NCIH441 LUNG | 1.07 ± 0.042 | 1.02 ± 0.038 | 1.07 ± 0.036 | 0.963 ± 0.056 | 1.07 ± 0.028 | 1.06 ± 0.021 | 1.01 ± 0.031 | 0.845 ± 0.019 | 1.11 ± 0.035 | 1.11 ± 0.081 | 1.01 ± 0.039 | 0.872 ± 0.037 | 0.78 ± 0.13 | 0.723 ± 0.1 | 0.584 ± 0.082 | 0.499 ± 0.083
